# From patent US10774051B2, “6-membered heterocyclic derivatives and pharmaceutical composition comprising the same” (Shionogi & Co., Ltd., priority 2015, dated 2020)
# Where two headings read alike, the source gives them in different places.
# Target: human P2X7 receptor (Homo sapiens, UniProt Q99572, R270H/Y155H)
# Assay: Evaluation of human P2X7 receptor inhibitory activity (Yo-Pro uptake, BzATP stimulation, FLIPR TETRA)
# Type: cell-based
# Outline: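 1321N1 cells stably expressing human P2X7 (T606C/G952A SNP variant), in HBSS buffer pH 7.4-7.5 with Yo-Pro, stimulated with BzATP; compound added 8 min after agonist. Fluorescence followed for 20 min on FLIPR; max-minus-min change gave % inhibition, IC50 by logistic fit.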
# [1] = antagonistic activity for the human P2X7 receptor, read-out: IC50
SMILES,IC50 [1] [nM],"IC50 (1321N1 cells stably expressing human P2X7 receptor, BzATP stimulation, Yo-Pro uptake, read-out: IC50 (antagonistic activity for the human P2X7 receptor)) [nM]"
COCc1cn(Cc2cc(F)c(F)c(F)c2)c(Nc2cc3c(cc2C)COC3)nc1=O [Compound I-1126],10 to 100,
Cc1cc2c(cc1Nc1nc(=O)c(CCO)cn1Cc1cc(F)c(F)c(F)c1)COC2 [Compound I-1127],10 to 100,
COc1ccc(C)c(Nc2nc(=O)c(C(=O)O)cn2Cc2cc(F)c(F)c(F)c2)c1 [Compound I-1128],10 to 100,
COCc1cn(Cc2cc(F)c(F)c(F)c2)c(Nc2cc(-c3ncco3)ccc2C)nc1=O [Compound I-1129],10 to 100,
Cc1cc2c(cc1Nc1nc(=O)c(C#N)cn1Cc1cc(F)c(F)c(F)c1)COC2 [Compound I-1130],10 to 100,
COCc1cn(Cc2cc(F)c(F)c(F)c2)c(Nc2cc(-c3nnco3)ccc2C)nc1=O [Compound I-1131],10 to 100,
Cc1cc(N2CCOCC2)ccc1Nc1nc(=O)c(C)cn1Cc1cc(F)c(F)c(F)c1 [Compound I-1132],10 to 100,
COc1cc(F)c(Nc2nc(=O)c(C)cn2Cc2cc(F)c(F)c(F)c2)cc1OC [Compound I-1133],10 to 100,
Cc1ccc(S(C)(=O)=O)cc1Nc1nc(=O)ccn1Cc1cc(F)c(F)c(F)c1 [Compound I-1134],10 to 100,
COc1cc(C)c(Nc2nc(=O)c(C)c(C)n2Cc2cc(F)cc(F)c2)cc1OC [Compound I-1135],10 to 100,
Cc1nc2cc(C)c(Nc3nc(=O)cc(C)n3Cc3cc(F)c(F)c(F)c3)cc2s1 [Compound I-1136],10 to 100,
Cc1cc(F)c(-c2cccn(C)c2=O)cc1Nc1nc(=O)ccn1Cc1cc(F)c(F)c(F)c1 [Compound I-1137],10 to 100,
COCc1cn(Cc2cc(F)c(F)c(F)c2)c(Nc2cc(OC)ccc2C)nc1=O [Compound I-1138],10 to 100,
COc1cc(Cl)c(Nc2nc(=O)c(C)cn2Cc2cc(F)c(F)c(F)c2)cc1OC [Compound I-1139],10 to 100,
COCc1cn(Cc2cc(F)c(F)c(F)c2)c(Nc2ccc(OC)cc2C)nc1=O [Compound I-1140],10 to 100,
COCc1cn(Cc2cc(F)c(F)c(F)c2)c(Nc2cc3sc(C)nc3cc2C)nc1=O [Compound I-1141],10 to 100,
COCc1cc(=O)nc(Nc2cc(OC)c(OC)cc2C)n1Cc1cc(F)cc(F)c1 [Compound I-1142],10 to 100,
Cc1ccc(-c2cccn(C)c2=O)cc1Nc1nc(=O)c(C)cn1Cc1cc(F)c(F)c(F)c1 [Compound I-1143],10 to 100,
COCc1cn(Cc2cc(F)c(F)c(F)c2)c(Nc2cc(OC)c(OC)cc2C)nc1=O [Compound I-1144],10 to 100,
Cc1ccc(OCCO)cc1Nc1nc(=O)c(C)cn1Cc1cc(F)c(F)c(F)c1 [Compound I-1145],10 to 100,
COCc1cn(Cc2cc(F)c(F)c(F)c2)c(Nc2cc(Cl)c(OC)cc2C)nc1=O [Compound I-1146],10 to 100,
COCc1cc(=O)nc(Nc2cc(OC)c(OC)cc2C)n1Cc1cc(F)c(F)c(F)c1 [Compound I-1147],10 to 100,
Cc1cc(F)c(-c2cccn(C)c2=O)cc1Nc1nc(=O)c(C)cn1Cc1cc(F)c(F)c(F)c1 [Compound I-1148],10 to 100,
Cc1cc(N2CCOCC2)ccc1Nc1nc(=O)ccn1Cc1cc(F)c(F)c(F)c1 [Compound I-1149],10 to 100,
COc1cc(C)c(Nc2nc(=O)ccn2Cc2cc(F)c(F)c(F)c2)cc1OC [Compound I-1150],10 to 100,
COc1ccc(C)c(Nc2nc(=O)c(C#N)cn2Cc2cc(F)c(F)c(F)c2)c1 [Compound I-1151],10 to 100,

SMILES,IC50 [1] [nM],"IC50 (1321N1 cells stably expressing human P2X7 receptor, BzATP stimulation, Yo-Pro uptake, read-out: IC50 (antagonistic activity for the human P2X7 receptor)) [nM]"
COCc1cn(Cc2cc(F)c(F)c(F)c2)c(Nc2cc(CO)ccc2C)nc1=O [Compound I-1152],< 10,
COc1cc(C)c(Nc2nc(=O)c(C)cn2Cc2cc(F)c(F)c(F)c2)cc1OC [Compound I-1153],< 10,
COc1ccc(Nc2nc(=O)c(C)cn2Cc2cc(F)c(F)c(F)c2)c(C)c1 [Compound I-1154],< 10,
COCc1cn(Cc2cc(F)c(F)c(F)c2)c(Nc2cc(C)cc3[nH]ccc23)nc1=O [Compound I-1155],< 10,
COCc1cn(Cc2cc(F)c(F)c(F)c2)c(Nc2cc(C)c(OC)cc2C)nc1=O [Compound I-1156],< 10,
Cc1ccc(-c2nnco2)cc1Nc1nc(=O)c(Cl)cn1Cc1cc(F)c(F)c(F)c1 [Compound I-1157],< 10,
COc1cc(C)c(Nc2nc(=O)c(C(N)=O)cn2Cc2ccc(F)c(F)c2)cc1C [Compound I-1158],< 10,
COc1cc(C)c(Nc2nc(=O)ccn2Cc2ccc(F)c(Cl)c2)cc1OC [Compound I-1159],< 10,
COc1cc(C)c(Nc2nc(=O)c(C#N)cn2Cc2ccc(F)c(F)c2)cc1C [Compound I-1160],< 10,
Cc1cc(Nc2nc(=O)ccn2Cc2cc(F)c(F)c(F)c2)c2cc[nH]c2c1 [Compound I-1161],< 10,
O=C1CCCc2c(Nc3nc(=O)c(Cl)cn3Cc3cc(F)c(F)c(F)c3)cccc21 [Compound I-1162],< 10,
COCc1cn(Cc2cc(F)c(F)c(F)c2)c(Nc2ccc3[nH]ccc3c2C)nc1=O [Compound I-1163],< 10,
Cc1cn(Cc2cc(F)cc(F)c2)c(Nc2ccc3[nH]ccc3c2C)nc1=O [Compound I-1164],< 10,
Cc1cn(Cc2cc(F)c(F)c(F)c2)c(Nc2ccc3[nH]ccc3c2C)nc1=O [Compound I-1165],< 10,
COc1cc(Nc2nc(=O)ccn2Cc2ccc(F)c(Cl)c2)c(C)c(OC)c1 [Compound I-1166],< 10,
COc1ccc(Nc2nc(=O)cc(C)n2Cc2cc(F)c(F)c(F)c2)c(C)c1 [Compound I-1167],< 10,
Cc1cn(Cc2ccc(F)c(F)c2)c(Nc2ccc3[nH]ccc3c2C)nc1=O [Compound I-1168],< 10,
Cc1c(Nc2nc(=O)ccn2Cc2cc(F)c(F)c(F)c2)ccc2[nH]ccc12 [Compound I-1169],< 10,
Cc1c(Nc2nc(=O)ccn2Cc2ccc(F)c(Cl)c2)ccc2[nH]ccc12 [Compound I-1170],< 10,
Cc1c(Nc2nc(=O)ccn2Cc2cc(F)cc(F)c2)ccc2[nH]ccc12 [Compound I-1171],< 10,
O=c1nc(Nc2cccc3c2CCCO3)n(Cc2cc(F)c(F)c(F)c2)cc1F [Compound I-1173],< 10,
COc1cc(C)c(Nc2nc(=O)c(F)cn2Cc2cc(F)cc(F)c2)cc1Cl [Compound I-1174],< 10,
COc1cc(C)c(Nc2nc(=O)c(F)cn2Cc2cc(F)c(F)c(F)c2)cc1Cl [Compound I-1175],< 10,
CCc1ccccc1Nc1nc(=O)c(F)cn1Cc1cc(F)c(F)c(F)c1 [Compound I-1176],< 10,
Cc1c(CO)cccc1Nc1nc(=O)c(F)cn1Cc1cc(F)c(F)c(F)c1 [Compound I-1177],< 10,
COCc1cccc(Nc2nc(=O)c(F)cn2Cc2cc(F)c(F)c(F)c2)c1C [Compound I-1178],< 10,

SMILES,IC50 [1] [nM],"IC50 (1321N1 cells stably expressing human P2X7 receptor, BzATP stimulation, Yo-Pro uptake, read-out: IC50 (antagonistic activity for the human P2X7 receptor)) [nM]"
COCCOc1ccc(C)c(Nc2nc(=O)c(F)cn2Cc2cc(F)c(F)c(F)c2)c1 [Compound I-1179],< 10,
COc1cc(C)c(Nc2nc(=O)c(F)cn2Cc2cc(F)c(F)c(F)c2)cc1C [Compound I-1180],< 10,
Cc1c(F)cccc1Nc1nc(=O)c(F)cn1Cc1cc(F)c(F)c(F)c1 [Compound I-1181],< 10,
Cc1nc2cc(Cl)c(Nc3nc(=O)c(F)cn3Cc3cc(F)c(F)c(F)c3)cc2s1 [Compound I-1182],< 10,
Cc1nc2cc(C)c(Nc3nc(=O)c(F)cn3Cc3cc(F)c(F)c(F)c3)cc2o1 [Compound I-1183],< 10,
Cc1ccc(Nc2nc(=O)c(F)cn2Cc2cc(F)c(F)c(F)c2)c(Cl)c1 [Compound I-1184],< 10,
Cc1cccc(Nc2nc(=O)c(F)cn2Cc2cc(F)c(F)c(F)c2)c1F [Compound I-1185],< 10,
COc1ccc(Nc2nc(=O)c(F)cn2Cc2cc(F)c(F)c(F)c2)c(Cl)c1 [Compound I-1186],< 10,
COc1cc(Cl)c(Nc2nc(=O)c(F)cn2Cc2cc(F)c(F)c(F)c2)cc1OC [Compound I-1187],< 10,
C=Cc1ccccc1Nc1nc(=O)c(F)cn1Cc1cc(F)c(F)c(F)c1 [Compound I-1188],,4
Cc1cccc(Nc2nc(=O)c(F)cn2Cc2cc(F)c(F)c(F)c2)c1C [Compound I-1189],< 10,
CCc1ccc(Cl)cc1Nc1nc(=O)c(F)cn1Cc1cc(F)c(F)c(F)c1 [Compound I-1190],< 10,
CCc1ccc(OC)cc1Nc1nc(=O)c(F)cn1Cc1cc(F)c(F)c(F)c1 [Compound I-1191],< 10,
Cc1cc(Cl)ccc1Nc1nc(=O)c(F)cn1Cc1cc(F)c(F)c(F)c1 [Compound I-1192],< 10,
Cc1ccc(Nc2nc(=O)c(F)cn2Cc2cc(F)c(F)c(F)c2)c(C)c1 [Compound I-1193],< 10,
Cc1ccc(C)c(Nc2nc(=O)c(F)cn2Cc2cc(F)c(F)c(F)c2)c1 [Compound I-1194],< 10,
Cc1ccc(Cl)c(Nc2nc(=O)c(F)cn2Cc2cc(F)c(F)c(F)c2)c1 [Compound I-1195],< 10,
COc1ccc(Cl)c(Nc2nc(=O)c(F)cn2Cc2cc(F)c(F)c(F)c2)c1 [Compound I-1196],< 10,
CCc1cc(OC)ccc1Nc1nc(=O)c(F)cn1Cc1cc(F)c(F)c(F)c1 [Compound I-1197],< 10,
Cc1nc2ccc(Nc3nc(=O)c(F)cn3Cc3cc(F)cc(F)c3)c(C)c2s1 [Compound I-1198],< 10,
Cc1nc2ccc(Nc3nc(=O)c(F)cn3Cc3cc(F)c(F)c(F)c3)c(C)c2s1 [Compound I-1199],< 10,
Cc1cc(C)c(Nc2nc(=O)c(F)cn2Cc2cc(F)c(F)c(F)c2)cc1C [Compound I-1200],< 10,
CCOc1cc(C)c(Nc2nc(=O)c(F)cn2Cc2cc(F)c(F)c(F)c2)cc1C [Compound I-1201],< 10,
Cc1c(Nc2nc(=O)c(F)cn2Cc2cc(F)cc(F)c2)ccc2scnc12 [Compound I-1202],< 10,
Cc1c(Nc2nc(=O)c(F)cn2Cc2cc(F)c(F)c(F)c2)ccc2scnc12 [Compound I-1203],< 10,
